Results from ChEMBL document CHEMBL1201862, “PubChem BioAssay data set” (2004).
Blank lines part the entries; values can stand above or below the molecule they belong to. Active and inactive are the calls of the source.

Legend:
[1] = biological target: T1, Rac GTPase-activating protein 1 (Homo sapiens, UniProt Q9H0H5); assay: blockers of MgcRacGAP-driven Rac1 GTP hydrolysis – biochemical, ADP Hunter fluorescence, primary and confirmatory, confirmation (AID 624330); type: functional
T1 sequence (Q9H0H5 whole entry): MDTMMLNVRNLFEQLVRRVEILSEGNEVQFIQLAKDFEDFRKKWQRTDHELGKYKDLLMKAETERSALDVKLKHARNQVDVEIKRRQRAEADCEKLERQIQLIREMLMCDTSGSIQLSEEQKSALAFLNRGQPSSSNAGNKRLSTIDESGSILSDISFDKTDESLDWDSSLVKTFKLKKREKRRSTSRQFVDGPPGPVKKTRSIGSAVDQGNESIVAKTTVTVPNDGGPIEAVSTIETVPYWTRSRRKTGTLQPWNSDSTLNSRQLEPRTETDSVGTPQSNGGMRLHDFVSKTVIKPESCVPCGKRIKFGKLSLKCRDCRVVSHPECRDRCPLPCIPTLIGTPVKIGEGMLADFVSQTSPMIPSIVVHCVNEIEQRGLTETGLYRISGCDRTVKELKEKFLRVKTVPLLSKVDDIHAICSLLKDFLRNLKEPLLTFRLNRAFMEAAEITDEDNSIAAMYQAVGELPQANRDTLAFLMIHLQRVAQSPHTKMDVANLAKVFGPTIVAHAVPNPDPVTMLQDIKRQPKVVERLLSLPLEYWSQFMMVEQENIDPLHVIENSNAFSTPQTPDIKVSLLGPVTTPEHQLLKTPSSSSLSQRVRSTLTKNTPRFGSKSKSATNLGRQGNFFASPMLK

[2] = biological target: T2, Heat shock factor protein 1 (Mus musculus, UniProt P38532); assay: decrease of HSF1-responsive luciferase luminescence – cell-based, NIH3T3, dose retest, confirmation (AID 2382); type: functional;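 also: NIH3T3 fibroblasts with HSF1-driven luciferase reporter stressed by proteasome inhibitor MG132; luminescence from HSF1-driven luciferase expression after 8 hours of MG132 stress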
T2 sequence (P38532 whole entry): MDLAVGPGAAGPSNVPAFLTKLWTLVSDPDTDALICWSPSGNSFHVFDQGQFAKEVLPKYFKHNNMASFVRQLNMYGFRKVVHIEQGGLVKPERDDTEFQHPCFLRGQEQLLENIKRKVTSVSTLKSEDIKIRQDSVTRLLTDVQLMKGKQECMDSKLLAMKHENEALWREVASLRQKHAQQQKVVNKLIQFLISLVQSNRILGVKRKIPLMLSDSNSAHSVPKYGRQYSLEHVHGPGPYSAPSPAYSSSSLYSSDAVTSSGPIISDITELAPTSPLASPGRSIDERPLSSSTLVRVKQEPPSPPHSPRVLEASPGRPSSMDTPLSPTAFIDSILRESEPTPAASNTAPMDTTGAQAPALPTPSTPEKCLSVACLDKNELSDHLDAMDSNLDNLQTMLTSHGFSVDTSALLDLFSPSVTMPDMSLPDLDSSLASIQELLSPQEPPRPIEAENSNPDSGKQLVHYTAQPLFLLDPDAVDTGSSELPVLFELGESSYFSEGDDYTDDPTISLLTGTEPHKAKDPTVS

[3] = biological target: Cytochrome P450 2C9 (Homo sapiens, UniProt P11712)
Chain of Cytochrome P450 2C9 (P11712 whole entry): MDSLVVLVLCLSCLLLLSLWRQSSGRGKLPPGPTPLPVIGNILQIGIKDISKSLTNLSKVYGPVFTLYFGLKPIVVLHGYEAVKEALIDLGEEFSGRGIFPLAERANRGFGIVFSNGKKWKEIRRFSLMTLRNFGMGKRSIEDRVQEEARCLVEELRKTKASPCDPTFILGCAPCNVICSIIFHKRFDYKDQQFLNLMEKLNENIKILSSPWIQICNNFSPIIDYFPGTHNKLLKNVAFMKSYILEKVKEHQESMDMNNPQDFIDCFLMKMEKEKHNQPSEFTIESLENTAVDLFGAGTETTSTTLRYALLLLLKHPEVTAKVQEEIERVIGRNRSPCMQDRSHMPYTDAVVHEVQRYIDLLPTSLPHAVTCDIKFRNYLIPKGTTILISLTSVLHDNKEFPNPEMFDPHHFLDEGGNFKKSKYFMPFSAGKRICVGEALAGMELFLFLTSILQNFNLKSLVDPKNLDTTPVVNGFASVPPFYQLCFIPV

[4] = biological target: T3, Corticotropin-releasing factor receptor 2/Corticotropin-releasing factor-binding protein (Homo sapiens, UniProt P24387+Q13324); assay: activators of CRF receptor 2 with binding protein – uHTS hits, confirmation (AID 602473); type: functional; settings: read-out: EC50_Mean
T3 sequence (Q13324 whole entry): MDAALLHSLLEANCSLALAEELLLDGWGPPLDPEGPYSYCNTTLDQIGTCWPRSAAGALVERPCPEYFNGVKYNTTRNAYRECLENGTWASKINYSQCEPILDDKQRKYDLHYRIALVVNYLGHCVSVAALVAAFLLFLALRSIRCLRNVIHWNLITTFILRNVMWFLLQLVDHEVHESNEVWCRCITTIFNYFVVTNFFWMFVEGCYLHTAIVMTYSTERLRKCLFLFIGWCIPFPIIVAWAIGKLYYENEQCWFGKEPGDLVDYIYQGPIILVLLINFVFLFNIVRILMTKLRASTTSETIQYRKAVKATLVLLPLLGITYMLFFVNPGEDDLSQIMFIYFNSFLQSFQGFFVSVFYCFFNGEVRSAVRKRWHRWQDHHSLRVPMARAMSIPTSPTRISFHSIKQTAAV
T3 sequence (P24387 whole entry): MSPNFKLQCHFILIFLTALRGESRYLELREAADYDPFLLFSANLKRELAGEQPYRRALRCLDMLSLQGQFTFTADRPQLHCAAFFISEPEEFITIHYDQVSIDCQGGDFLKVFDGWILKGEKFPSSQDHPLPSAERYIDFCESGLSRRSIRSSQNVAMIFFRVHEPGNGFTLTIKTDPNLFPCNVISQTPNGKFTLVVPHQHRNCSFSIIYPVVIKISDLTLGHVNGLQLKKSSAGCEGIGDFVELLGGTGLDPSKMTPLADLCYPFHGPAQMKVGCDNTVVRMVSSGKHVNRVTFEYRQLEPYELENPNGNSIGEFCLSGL

[5] = biological target: T3, Corticotropin-releasing factor receptor 2/Corticotropin-releasing factor-binding protein; assay: Dose Response confirmation of uHTS hits for small molecule antagonists of the CRF-binding protein and CRF-R2 receptor complex.; type: functional; settings: read-out: IC50_Mean
[6] = biological target: Cytochrome P450 2C19 (Homo sapiens, UniProt P33261); assay: Cytochrome panel assay with activity outcomes. Panel member name: p450-cyp2c19 Compounds with AC50 equal or less than 10 uM are considered active; type: functional
Chain of Cytochrome P450 2C19 (P33261 whole entry): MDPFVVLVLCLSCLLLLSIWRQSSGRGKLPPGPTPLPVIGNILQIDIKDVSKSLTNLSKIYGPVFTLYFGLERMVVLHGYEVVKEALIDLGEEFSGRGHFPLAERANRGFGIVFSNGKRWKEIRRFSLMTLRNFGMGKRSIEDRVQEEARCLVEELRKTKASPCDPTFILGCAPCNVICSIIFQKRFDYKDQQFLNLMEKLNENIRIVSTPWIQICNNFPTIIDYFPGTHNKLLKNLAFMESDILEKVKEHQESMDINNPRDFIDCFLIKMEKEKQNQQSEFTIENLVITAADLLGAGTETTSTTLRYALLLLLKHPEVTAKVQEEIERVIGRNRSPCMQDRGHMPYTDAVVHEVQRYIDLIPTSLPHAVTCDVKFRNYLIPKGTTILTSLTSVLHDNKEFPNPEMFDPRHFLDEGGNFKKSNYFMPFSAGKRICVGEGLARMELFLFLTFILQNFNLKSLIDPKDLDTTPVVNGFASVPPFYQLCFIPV

[7] = biological target: T4, Cytochrome P450 1A2 (Homo sapiens, UniProt P05177);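 also: PubChem cytochrome P450 panel assay, CYP1A2 panel member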
T4 sequence (P05177 whole entry): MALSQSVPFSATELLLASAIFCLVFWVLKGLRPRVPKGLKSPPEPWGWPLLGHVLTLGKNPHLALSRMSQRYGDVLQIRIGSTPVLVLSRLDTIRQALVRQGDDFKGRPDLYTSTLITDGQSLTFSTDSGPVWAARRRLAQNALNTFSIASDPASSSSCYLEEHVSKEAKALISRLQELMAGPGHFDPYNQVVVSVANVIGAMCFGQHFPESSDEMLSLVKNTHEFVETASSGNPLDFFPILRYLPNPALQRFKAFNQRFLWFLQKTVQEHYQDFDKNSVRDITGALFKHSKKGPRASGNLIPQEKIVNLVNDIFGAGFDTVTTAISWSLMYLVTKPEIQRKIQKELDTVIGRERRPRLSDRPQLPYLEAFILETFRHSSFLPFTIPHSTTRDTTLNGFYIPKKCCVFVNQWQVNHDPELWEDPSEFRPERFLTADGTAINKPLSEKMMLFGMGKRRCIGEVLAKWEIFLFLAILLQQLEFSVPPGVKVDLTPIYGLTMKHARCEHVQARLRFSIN

[8] = biological target: Cytochrome P450 2D6 (Homo sapiens, UniProt P10635)
Chain of Cytochrome P450 2D6 (P10635 whole entry): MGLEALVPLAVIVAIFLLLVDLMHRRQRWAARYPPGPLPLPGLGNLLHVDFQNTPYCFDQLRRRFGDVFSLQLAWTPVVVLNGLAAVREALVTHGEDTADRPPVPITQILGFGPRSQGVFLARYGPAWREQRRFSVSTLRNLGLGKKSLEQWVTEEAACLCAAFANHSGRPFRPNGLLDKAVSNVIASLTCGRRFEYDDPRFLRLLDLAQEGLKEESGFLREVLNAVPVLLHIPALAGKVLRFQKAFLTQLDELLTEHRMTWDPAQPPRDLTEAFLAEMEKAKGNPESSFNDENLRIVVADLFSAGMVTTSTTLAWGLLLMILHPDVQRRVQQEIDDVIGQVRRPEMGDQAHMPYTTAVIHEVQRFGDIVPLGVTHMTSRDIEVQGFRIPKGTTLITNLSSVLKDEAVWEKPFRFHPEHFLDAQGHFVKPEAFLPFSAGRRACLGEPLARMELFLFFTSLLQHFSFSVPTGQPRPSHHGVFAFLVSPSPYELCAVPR

SMILES: CC1CC(=O)Nc2cc([N+](=O)[O-])ccc2N1 (stereo not given)
EC50 [2]: > 195 µM (not active)

SMILES: NS(=O)(=O)c1ccc(CN=C(S)NC2CCCCC2)cc1
EC50 [2]: > 195 µM (not active)

SMILES: O=C1C2C3C=CC(C3)C2C(=O)N1CCCO (stereo not given)
EC50 [4]: > 53 µM (inactive)
IC50 [5]: > 47.1 µM (inactive)

SMILES: CCN1CCN(CC(c2ccccc2)c2ccccc2)CC1
IC50 [1]: 197 µM (active)

SMILES: CC(=O)Nc1nn(C)c2nc(C)cc(C)c12
EC50 [2]: > 195 µM (not active)

SMILES: COc1ccc(NC(C)=O)cc1NC(=O)CN1CCN(CC(=O)Nc2ccccc2Cl)CC1
AC50 [3]: 20 µM (inconclusive)
EC50 [2]: > 195 µM (not active)

SMILES: CCn1c(SCC(=O)NC(=O)NCc2ccco2)nnc1-c1cccs1
AC50 [3]: 39.8 µM (inconclusive)

SMILES: CCCS(=O)(=O)N1CCCC(C(=O)NCCCN2CCN(c3ccccc3F)CC2)C1 (stereo not given)
AC50 [3]: 5.01 µM (inconclusive)
AC50 ([6]; read-out: AC50): 39.8 µM (inconclusive)

SMILES: CCN=C(S)NNC(=O)c1cccc(Br)c1
AC50 ([6]; read-out: AC50): 5.62 µM (inconclusive)
AC50 [7]: 17.8 µM (inconclusive)

SMILES: O=C1/C(=N\O)Cc2ccccc21
AC50 ([6]; read-out: AC50): 39.8 µM (inconclusive)
AC50 [7]: 14.1 µM (inconclusive)

SMILES: CN1CCN(c2ncc3nc(-c4ccc(Cl)cc4)c(=O)n(CCC#N)c3n2)CC1
AC50 [6]: inconclusive
AC50 [7]: 15.8 µM (inconclusive)

SMILES: CCOC(=O)C1CCN(C(=O)c2n[nH]c(=O)c3ccccc23)CC1
EC50 [4]: > 53 µM (inactive)
IC50 [5]: > 47.1 µM (inactive)

SMILES: COc1ccc(C(C)N2CC34C=CC(O3)C(C(=O)O)C4C2=O)cc1 (stereo not given)
EC50 [2]: > 195 µM (not active)

SMILES: Cc1cc(NC(=O)c2c([N+](=O)[O-])c(C)nn2C)no1
AC50 [6]: inconclusive
AC50 [7]: 39.8 µM (inconclusive)

SMILES: CC(C)CCNC(=O)CN(C(=O)CCC(=O)Nc1nccs1)c1ccc2c(c1)OCCO2
EC50 [2]: 5.9 µM (active)

SMILES: COc1cc(=O)n2c(n1)SCCC2
AC50 [3]: 31.6 µM (inconclusive)

SMILES: CCn1cc(C2=NOC(C(=O)Nc3ccccc3C(=O)OC)C2)c(C)n1 (stereo not given)
EC50 [4]: > 53 µM (inactive)
IC50 [5]: > 47.1 µM (inactive)

SMILES: C[C@@H](CC(=O)O)[C@@H](N)C(=O)O
AC50 [7]: 31.6 µM (inconclusive)

SMILES: COc1ccc(-c2csc(NC(=O)CN3C(=O)C4CC=CCC4C3=O)n2)cc1OC (stereo not given)
EC50 [4]: > 53 µM (inactive)
IC50 [5]: > 47.1 µM (inactive)

SMILES: Cc1ncn(C23CC4CC(CC(C4)C2)C3)n1
EC50 [4]: > 53 µM (inactive)
IC50 [5]: > 47.1 µM (inactive)

SMILES: COc1ccc(/C=N/NC(=O)c2cccc(S(=O)(=O)N3CCCC3)c2)cc1O
IC50 [1]: 57.5 µM (active)

The next lines start with the values.

IC50 [1]: 51.6 µM (active)
SMILES: O=C(N/N=C/c1ccc(O)cc1)c1csc2c1CCCC2

AC50 [3]: 14.1 µM (inconclusive)
SMILES: Cc1ccc2[nH]c(Cc3ccc(N)cc3)nc2c1

IC50 [1]: 114 µM (active)
SMILES: COc1ccc(/C=N/NC(=O)c2ccc(CSc3nc(C)cc(C)n3)cc2)cc1O

EC50 [2]: > 195 µM (not active)
SMILES: N#C/C(=C/c1cccc(C(F)(F)F)c1)c1nc(CCN2C(=O)c3ccccc3C2=O)cs1

EC50 [2]: > 195 µM (not active)
SMILES: Cc1ccc(S(=O)(=O)N2CCN(CCNC(=O)C(=O)NCc3ccccc3)CC2)cc1

EC50 [2]: > 195 µM (not active)
SMILES: CCCN1Cc2cccc(C(=O)N3CCN(c4ccc(OC)cc4)CC3)c2C1=O

EC50 [4]: > 53 µM (inactive)
IC50 [5]: > 47.1 µM (inactive)
SMILES: Cn1c(=O)c(C(=O)NCc2ccccc2Cl)c(O)c2ccccc21

EC50 [4]: > 53 µM (inactive)
IC50 [5]: > 47.1 µM (inactive)
SMILES: Fc1cccc(NC(S)=NCc2ccc(Cl)cc2)c1

IC50 [1]: 29.1 µM (active)
SMILES: C=CCn1c(SCC(C)=O)nnc1-c1cc(-c2ccccc2)sc1N

EC50 [2]: > 195 µM (not active)
SMILES: Cc1cnc(C(=O)Nc2ccccc2-n2cccc2)cn1

AC50 [3]: 3.16 µM (inconclusive)
AC50 [7]: 5.01 µM (inconclusive)
SMILES: Cc1ccc(/N=N\c2c(O)ccc3cc(S(=O)(=O)O)ccc23)cc1

AC50 [3]: 14.1 µM (inconclusive)
SMILES: Clc1cccc(Oc2cnc3ccccc3n2)c1

IC50 [1]: 87.2 µM (active)
SMILES: Cc1cccc(CN2CCN(Cc3ccco3)CC2)c1

EC50 [4]: > 53 µM (inactive)
IC50 [5]: > 47.1 µM (inactive)
SMILES: Cc1onc(-c2ccccc2Cl)c1C(=O)NCc1ccc(N2CCCC2=O)cc1

EC50 [2]: 0.328 µM (active)
SMILES: CN1CCN(c2nc(-c3ccc(C(C)(C)C)cc3)nc3ccccc23)CC1

EC50 [2]: > 195 µM (not active)
SMILES: c1ccc(-c2nc3ccccc3c3nncn23)cc1

IC50 [1]: 46.2 µM (active)
SMILES: CCOc1cc(/C=N/NC(=O)c2ccccc2-n2cccc2)ccc1O

IC50 [1]: 42.8 µM (active)
SMILES: Nc1ccc(O)c([N+](=O)[O-])c1

AC50 [3]: 7.94 µM (inconclusive)
AC50 [8]: 6.31 µM (inconclusive)
SMILES: N=C1[C@@H](O)[C@]2(I)c3ccccc3N3C(=N)[C@H](O)[C@@H]4c5ccccc5N1[C@@H]4[C@@H]32

EC50 [4]: > 53 µM (inactive)
IC50 [5]: > 47.1 µM (inactive)
SMILES: COC(=O)CC1SC(=O)NC1=Nc1ccc(OC)cc1 (stereo not given)

IC50 [1]: 65 µM (active)
SMILES: COc1ccc2cc(OCC(=O)NNC(=O)Nc3ccc(F)cc3)ccc2c1

IC50 [1]: 92.4 µM (active)
SMILES: Nc1ccn([C@@H]2O[C@H](CNCC3=CCOc4ccc(O)cc43)[C@@H](O)[C@H]2O)c(=O)n1

AC50 [3]: 0.501 µM (inconclusive)
AC50 [8]: 20 µM (inconclusive)
SMILES: COc1ccccc1CNc1ccnc(-c2c(C)noc2C)n1

EC50 [4]: > 53 µM (inactive)
IC50 [5]: > 47.1 µM (inactive)
SMILES: NS(=O)(=O)c1ccc(NC(=O)CSc2nnc(COc3ccccc3Cl)n2C2CC2)cc1

AC50 [3]: 22.4 µM (inconclusive)
AC50 ([6]; read-out: AC50): 31.6 µM (inconclusive)
SMILES: Oc1c2c(nc3c(-c4ccccc4)cnn13)CCC2

AC50 [3]: 8.91 µM (inconclusive)
AC50 [7]: 8.91 µM (inconclusive)
SMILES: O=[N+]([O-])c1ccc(Nc2nc(N/N=C\c3ccc4c(c3)OCO4)nc(N3CCCCC3)n2)cc1

EC50 [4]: > 53 µM (inactive)
IC50 [5]: > 47.1 µM (inactive)
SMILES: c1ccc(-n2c(-c3ccncc3)nnc2-c2ccco2)cc1
